Measurements published in ChEMBL document CHEMBL1147711, “Tetrazole thioacetanilides: potent non-nucleoside inhibitors of WT HIV reverse transcriptase and its K103N mutant” (Bioorg Med Chem Lett, 2006).

Key:
[1] = molecular target: Human immunodeficiency virus type 1 reverse transcriptase (Human immunodeficiency virus 1, UniProt Q72547); assay: Inhibition of HIV1 wild type Reverse Transcriptase
[2] = tested on: Human immunodeficiency virus type 1 reverse transcriptase (Human immunodeficiency virus 1), Q72547 [UNDEFINED MUTATION]; assay: Ratio of K103N mutant IC50 to wild type Reverse Transcriptase IC50
[3] = tested on: Human immunodeficiency virus 1; assay: Antiviral activity against HIV1 in presence of 10% FBS; assay type: functional; details: read-out: CIC95
[4] = tested on: Human immunodeficiency virus 1; assay: Antiviral activity against HIV1 in presence of 50% NHS; assay type: functional; details: read-out: CIC95
[5] = Oral bioavailability in rat at 3 mg/kg, iv and po; assay type: ADME, organism-based; details: in vivo

Row | SMILES | IC50 [1] [nM] | Ratio [2] | IC95 [3] [nM] | IC95 [4] [nM] | bioavailability [5] [%]
1 | Cc1cc(C)c(-n2nnnc2SCC(=O)Nc2ccc(C(N)=O)cc2C)c(C)c1 | 55 | 1 | 31 | 62 | –
2 | Cc1cc(C)c(-n2nnnc2SCC(=O)Nc2ccc([N+](=O)[O-])cc2C)c(C)c1 | 165 | 3 | 1250 | > 5000 | –
3 | Cc1cc(C)c(-n2nnnc2SCC(=O)Nc2ccccc2Cl)c(C)c1 | 5 | 3 | – | – | –
4 | Cc1cc(C)c(-n2nnnc2SCC(=O)Nc2ccccc2I)c(C)c1 | 31 | 3 | 312 | 1250 | –
5 | Cc1cc(C)c(-n2nnnc2SCC(=O)Nc2cccc([N+](=O)[O-])c2)c(C)c1 | 200 | – | > 5000 | – | –
6 | Cc1cc(C)c(-n2nnnc2SCC(=O)Nc2ccc(C(=O)NCCCN(C)C)cc2Cl)c(C)c1 | 5 | 2 | 8 | 16 | –
7 | NS(=O)(=O)c1ccc(NC(=O)CSc2nnnn2-c2cccc(Cl)c2Cl)c(Cl)c1 | 9 | 1 | 62 | 250 | –
8 | Cc1cc(C)c(-n2nnnc2SCC(=O)Nc2ccc(S(N)(=O)=O)cc2C)c(C)c1 | 54 | 1 | 50 | 580 | 60
9 | Cc1cc(C)c(-n2nnnc2SCC(=O)Nc2ccc(OCCCN(C)C)cc2Cl)c(C)c1 | 13 | 5 | 62 | 62 | –
10 | Cc1ccc(Cl)cc1-n1nnnc1SCC(=O)Nc1ccccc1[N+](=O)[O-] | 23 | 1 | 78 | 1250 | –
11 | Cc1c(Cl)cccc1-n1nnnc1SCC(=O)Nc1ccccc1[N+](=O)[O-] | 3 | 3 | 8 | 31 | –
12 | O=C(CSc1nnnn1-c1cc(Cl)ccc1Cl)Nc1ccccc1[N+](=O)[O-] | 4 | 1 | 31 | 200 | –
13 | Cc1cc(C)c(-n2nnnc2SCC(=O)Nc2ccccc2Br)c(C)c1 | 7 | 5 | 100 | 810 | –
14 | Cc1cccc(-n2nnnc2SCC(=O)Nc2ccccc2[N+](=O)[O-])c1C | 18 | 1 | 63 | 250 | –
15 | Cc1cc(C)c(-n2nnnc2SCC(=O)Nc2ccc(C(N)=O)cc2Cl)c(C)c1 | 3 | 2 | 8 | 16 | –
16 | NS(=O)(=O)c1ccc(NC(=O)CSc2nnnn2-c2cc(Cl)ccc2Cl)c(Cl)c1 | 3 | 1 | 16 | 125 | 33
17 | Cc1cc(C)c(-n2nnnc2SCC(=O)Nc2ccccc2[N+](=O)[O-])c(C)c1 | 3 | 3 | 11 | 90 | 0
18 | Cc1cc(C)c(-n2nnnc2SCC(=O)Nc2ccc([N+](=O)[O-])cc2Cl)c(C)c1 | 22 | 5 | 78 | 1250 | –
19 | Cc1cc(C)c(-n2nnnc2SCC(=O)Nc2c(Cl)cccc2Cl)c(C)c1 | > 5000 | – | > 5000 | > 5000 | –
20 | Cc1cc(C)c(-n2nnnc2SCC(=O)Nc2ccc(S(N)(=O)=O)cc2Cl)c(C)c1 | 4 | 3 | 16 | 62 | 33
21 | Cc1cc(C)c(-n2nnnc2SCC(=O)Nc2ccc(S(N)(=O)=O)cc2)c(C)c1 | 1250 | – | 1250 | > 5000 | –
22 | Cc1cc(C)c(-n2nnnc2SCC(=O)Nc2ccc(Cl)cc2[N+](=O)[O-])c(C)c1 | 4 | 3 | 31 | 400 | –
23 | O=C(CSc1nnnn1-c1cc(F)ccc1Cl)Nc1ccccc1[N+](=O)[O-] | 10 | 1 | 63 | 250 | –
24 | Cc1ccc(-n2nnnc2SCC(=O)Nc2ccccc2[N+](=O)[O-])c(Br)c1 | 3 | 3 | 8 | 62 | –
25 | O=C(CSc1nnnn1-c1c(Cl)cccc1Cl)Nc1ccccc1[N+](=O)[O-] | 4 | 1 | 15 | 62 | –
26 | O=C(CSc1nnnn1-c1ccc(Cl)c(Cl)c1)Nc1ccccc1[N+](=O)[O-] | 230 | 2 | > 5000 | > 5000 | –
27 | O=C(CSc1nnnn1-c1cccc(Cl)c1Cl)Nc1ccccc1[N+](=O)[O-] | 12 | 1 | 78 | 125 | –
28 | Cc1cc(C)c(-n2nnnc2SCC(=O)Nc2ccc([N+](=O)[O-])cc2)c(C)c1 | > 5000 | – | > 5000 | > 5000 | –
